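48-hour exposure; five concentrations; linearly interpolated endpoints. GI50 marks 50% less growth. The concentration for full growth arrest is given as TGI.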

Usually GI50 stands for the concentration that inhibits growth by half. As a reminder, the TGI is the concentration at which net growth stops.

Common to all, as to assay: DTP human tumour cell line panel, 48 h
Assay [1] relates to A498 renal.
Assay [2] relates to CAKI-1 renal.
The subject of assay [3] is HL-60(TB) leukemia.
The subject of assay [4] is HT29 colon.
For assay [5], the system named is MCF7 breast.
Assay [6] concerns SF-268 CNS.
In assay [7] the test system is SF-295 CNS.
The test system of assay [8] is SK-MEL-2 melanoma.
The subject of assay [9] is SNB-19 CNS.
For assay [10], the system named is TK-10 renal.

Take `N#Cc1c(N)nc(N2CCOCC2)c(C#N)c1-c1c(Cl)cccc1Cl`: the GI50 in assay [1] is 3.75 µM; in assay [2], 2.24 µM; in assay [3], 4.75 µM; in assay [4], 3.33 µM; in [5] it was 2.92 µM; in assay [6], 11.3 µM. Further, the GI50 in assay [7] is 4.4 µM; in assay [8], 6.31 µM; in assay [9] it was 6.09 µM; in assay [10], 20.9 µM. The concentration for total growth inhibition (TGI) in assay [1] was 23.1 µM; in assay [2] it was 12.2 µM; in assay [3], 20.9 µM; in [4], 17.4 µM; in assay [5], 16.4 µM; in assay [6] it was more than 100 µM. Moreover, the concentration for total growth inhibition (TGI) in assay [7] was 43.2 µM; in [8], 93.2 µM; in assay [9], 25.6 µM; in [10] it was more than 100 µM.

Regarding `CC(C)(C)[Si](C)(C)OC1[C@@H](COC(=O)NC(=O)CCl)O[C@@H](n2cnc3c(N)ncnc32)[C@H]1O[Si](C)(C)C(C)(C)C` (stereo partly drawn), the GI50 was 6.58 µM in assay [1]; 4.25 µM in assay [2]; 4.52 µM in assay [3]; 2.59 µM in assay [4]; 2.26 µM in assay [5]; 1.93 µM in assay [6]. Moreover, the GI50 in assay [7] is 7.52 µM; in [8], 6.72 µM; in assay [9], 7.61 µM; in [10] it was 9.14 µM. In addition, the TGI was 13.1 µM in [1]; 11.2 µM in assay [2]; 12.3 µM in [3]; 8.53 µM in [4]; 9 µM in assay [5]; 5.23 µM in assay [6]. Also, the concentration for total growth inhibition (TGI) in assay [7] came out at 14.3 µM; in [8] it was 13.8 µM; in [9], 14.7 µM; in assay [10] it was 16.1 µM.

As to `C[C@]12CCC(=O)C[C@@H]1CC[C@@H]1[C@@H]2CC[C@]2(C)[C@@H](OC(=O)N(CCCl)N=O)CC[C@@H]12`, the GI50 in [1] was 1.82 µM; in assay [2] it was 0.591 µM; in assay [3], 0.259 µM; in assay [4], 2.75 µM; in [5] it was 4.71 µM; in assay [6], 0.0983 µM. Moreover, the 50% growth inhibitory concentration (GI50) in assay [7] was 0.133 µM; in [8], 3.47 µM; in assay [9], 0.411 µM; in assay [10] it was 3.85 µM. For the same compound, the concentration for total growth inhibition (TGI) is 4.98 µM in assay [1]; 12 µM in assay [2]; more than 33 µM in [3]; more than 39 µM in [4]; more than 45.6 µM in [5]; 8.85 µM in assay [6]. The TGI in [7] was more than 45.4 µM; in assay [8], 16.8 µM; in assay [9] it was 17.8 µM; in assay [10], 27.7 µM.

Regarding `CC(=O)c1c(C)c2cnc(Nc3ccc(N4CCNCC4)cn3)nc2n(C2CCCC2)c1=O`, the GI50 was 4.69 µM in assay [1]; 1.61 µM in assay [2]; 0.638 µM in assay [3]; 0.969 µM in assay [4]; 0.585 µM in assay [5]; 10.7 µM in assay [6]. In addition, the GI50 is 12.9 µM in [7], 11.5 µM in assay [8], 11.7 µM in [9] and 0.533 µM in [10]. The total growth inhibition concentration (TGI) in [1] stood at 19.5 µM; in assay [2], 17.2 µM; in [3] it was 24.8 µM; in [4] it was 16.8 µM; in assay [5], 18.7 µM; in [6], 25.3 µM. Further, the TGI was 28.9 µM in assay [7], 25.3 µM in [8], 25.4 µM in assay [9] and 16.3 µM in assay [10].

Turning to `CCN1C(=O)N(CC)C2C1N=C(SC)N2/N=C/C=C/c1ccccc1OC` (stereo not drawn), the GI50 in [1] was 0.285 µM; in assay [2], 0.572 µM; in [3], 0.289 µM; in assay [4] it was 0.357 µM; in [5], 0.421 µM; in assay [6], 0.877 µM. Moreover, the concentration for 50% growth inhibition (GI50) in assay [7] was 0.358 µM; in assay [8], 1.2 µM; in [9], 0.492 µM; in assay [10] it was 1.09 µM. In addition, the TGI is 1.9 µM in [1]; more than 58.3 µM in assay [2]; 1.09 µM in assay [3]; more than 39.4 µM in [5]; more than 57.7 µM in [6]; more than 37.4 µM in assay [7]. Further, the concentration for total growth inhibition (TGI) was more than 39.3 µM in assay [8], more than 39 µM in assay [9] and more than 58.7 µM in [10].

Consider `CN(CCCCCl)P(=O)(OCc1ccc([N+](=O)[O-])o1)OCC1OC(n2cc([N+](=O)[O-])c(=O)[nH]c2=O)CC1O` (stereo not drawn), for which the GI50 is 29.6 µM in assay [1]; 48.5 µM in [2]; more than 100 µM in assay [3]; more than 100 µM in assay [4]; 22.8 µM in assay [5]; 3 µM in assay [6]. Also, the GI50 in assay [7] is 49.8 µM; in assay [8] it was more than 100 µM; in [9], more than 100 µM; in [10] it was more than 100 µM. Also, the TGI in assay [1], in assay [2], in [3], in assay [4], in assay [5] and in assay [6] was more than 100 µM each time. For the same compound, the TGI in assay [7], in assay [8], in assay [9] and in [10] was more than 100 µM in each case.

On to `COC(=O)CC1=C(C)/C(=C/c2[nH]c(-c3ccc[nH]3)cc2OC)N=C1C`, for which the GI50 is 1.02 µM in [1]; 0.231 µM in assay [2]; 0.154 µM in assay [3]; 0.0375 µM in assay [4]; 0.0828 µM in assay [5]; 0.388 µM in [6]. Also, the GI50 in assay [7] was 0.332 µM; in assay [8], 0.149 µM; in assay [9] it was 1.35 µM; in assay [10], 0.214 µM. The TGI in assay [1] came out at 5.39 µM; in assay [2] it was 2.34 µM; in assay [3], 0.882 µM; in [4], 1.19 µM; in assay [5], 0.733 µM; in [6] it was 10.9 µM. The concentration for total growth inhibition (TGI) is 1.69 µM in assay [7], 0.354 µM in assay [8], 14.2 µM in [9] and 3.41 µM in [10].

On to `Cc1ccc(-c2nc3sc(C)cn3c2/C=C2\C(=O)Nc3ccc(Cl)cc32)cc1`, for which the GI50 in assay [1] is 16.3 µM; in assay [2], 17 µM; in assay [3] it was 32.3 µM; in assay [4] it was 20.3 µM; in assay [5], 7.66 µM; in [6] it was 17.8 µM. Besides, the GI50 is 8.2 µM in assay [7], 12.1 µM in assay [8], 10.6 µM in assay [9] and 9.28 µM in assay [10]. The TGI in [1] is 36 µM; in assay [2], 38.2 µM; in assay [3] it was more than 100 µM; in assay [4], 41.4 µM; in [5] it was 22.3 µM; in assay [6], 35.5 µM. For the same compound, the concentration for total growth inhibition (TGI) in assay [7] is 32.9 µM; in [8], 28.6 µM; in assay [9], 27.7 µM; in assay [10], 24.7 µM.

For `CSc1nc2c(c(=O)n1C)C(c1ccccc1)C1=C(N2)/C(=C/c2ccccc2)CCC1` (stereo not drawn), the GI50 is 16.8 µM in assay [1]; 69 µM in assay [2]; 0.721 µM in assay [3]; 3.58 µM in [4]; 7.72 µM in [5]; 10.7 µM in assay [6]. The GI50 in [7] was 4.67 µM; in [8], 9.48 µM; in assay [9], 22.4 µM; in assay [10], 20.9 µM. For the same compound, the TGI in assay [1] is 88.4 µM; in assay [2] it was more than 100 µM; in [3], 48.4 µM; in assay [4], 71 µM; in assay [5] it was more than 100 µM; in assay [6] it was more than 100 µM. Further, the TGI is 34 µM in assay [7], 42.6 µM in assay [8], more than 100 µM in assay [9] and more than 100 µM in assay [10].

In the case of `Cc1c(C(N)=O)sc2nc(C)n(/N=c3\scc(-c4ccccc4)n3Cc3ccccc3)c(=O)c12`, the GI50 in [1] is 2.53 µM; in [2], 3.35 µM; in assay [3], 6.68 µM; in assay [4], 3.04 µM; in [5], 2.92 µM; in assay [6], 4 µM. Further, the GI50 in assay [7] is 2.93 µM; in [8], 3.89 µM; in [9] it was 4.8 µM; in [10] it was 3.78 µM. For the same compound, the TGI was 8.97 µM in [1]; more than 100 µM in assay [2]; more than 100 µM in assay [3]; more than 100 µM in assay [4]; more than 100 µM in [5]; more than 100 µM in assay [6]. Also, the TGI in assay [7] was more than 100 µM; in assay [8] it was 86.6 µM; in assay [9], more than 100 µM; in [10] it was more than 100 µM.

Consider `COc1cc(C(=O)O[C@H](C(=O)NCCCCNC(=O)[C@@H](OC(=O)c2cc(OC)cc3c(C)cccc23)[C@]2(C)CO2)[C@]2(C)CO2)c2cccc(C)c2c1`, for which the GI50 was 2.46 µM in assay [1]; 0.0122 µM in assay [2]; less than 0.01 µM in assay [3]; 0.104 µM in assay [4]; less than 0.01 µM in assay [5]; 0.0101 µM in assay [6]. The GI50 in assay [7] was 0.122 µM; in assay [8] it was 0.0724 µM; in assay [9], 0.201 µM; in assay [10], 0.469 µM. The TGI is 5.16 µM in assay [1]; 0.0986 µM in [2]; less than 0.01 µM in [3]; more than 100 µM in [4]; less than 0.0355 µM in [5]; 0.0619 µM in assay [6]. Also, the total growth inhibition concentration (TGI) in [7] stood at 0.672 µM; in assay [9] it was 2.31 µM; in assay [10], 1.36 µM.
